Usually IC50 stands for the concentration at which inhibition is half-maximal. A lower IC50 goes with greater potency.

The target in the experiment is Arf-GAP with SH3 domain, ANK repeat and PH domain-containing protein 1 (Homo sapiens, UniProt Q9ULH1).
Sequence of Arf-GAP with SH3 domain, ANK repeat and PH domain-containing protein 1 (Q9ULH1 whole entry, the tested form may be a part): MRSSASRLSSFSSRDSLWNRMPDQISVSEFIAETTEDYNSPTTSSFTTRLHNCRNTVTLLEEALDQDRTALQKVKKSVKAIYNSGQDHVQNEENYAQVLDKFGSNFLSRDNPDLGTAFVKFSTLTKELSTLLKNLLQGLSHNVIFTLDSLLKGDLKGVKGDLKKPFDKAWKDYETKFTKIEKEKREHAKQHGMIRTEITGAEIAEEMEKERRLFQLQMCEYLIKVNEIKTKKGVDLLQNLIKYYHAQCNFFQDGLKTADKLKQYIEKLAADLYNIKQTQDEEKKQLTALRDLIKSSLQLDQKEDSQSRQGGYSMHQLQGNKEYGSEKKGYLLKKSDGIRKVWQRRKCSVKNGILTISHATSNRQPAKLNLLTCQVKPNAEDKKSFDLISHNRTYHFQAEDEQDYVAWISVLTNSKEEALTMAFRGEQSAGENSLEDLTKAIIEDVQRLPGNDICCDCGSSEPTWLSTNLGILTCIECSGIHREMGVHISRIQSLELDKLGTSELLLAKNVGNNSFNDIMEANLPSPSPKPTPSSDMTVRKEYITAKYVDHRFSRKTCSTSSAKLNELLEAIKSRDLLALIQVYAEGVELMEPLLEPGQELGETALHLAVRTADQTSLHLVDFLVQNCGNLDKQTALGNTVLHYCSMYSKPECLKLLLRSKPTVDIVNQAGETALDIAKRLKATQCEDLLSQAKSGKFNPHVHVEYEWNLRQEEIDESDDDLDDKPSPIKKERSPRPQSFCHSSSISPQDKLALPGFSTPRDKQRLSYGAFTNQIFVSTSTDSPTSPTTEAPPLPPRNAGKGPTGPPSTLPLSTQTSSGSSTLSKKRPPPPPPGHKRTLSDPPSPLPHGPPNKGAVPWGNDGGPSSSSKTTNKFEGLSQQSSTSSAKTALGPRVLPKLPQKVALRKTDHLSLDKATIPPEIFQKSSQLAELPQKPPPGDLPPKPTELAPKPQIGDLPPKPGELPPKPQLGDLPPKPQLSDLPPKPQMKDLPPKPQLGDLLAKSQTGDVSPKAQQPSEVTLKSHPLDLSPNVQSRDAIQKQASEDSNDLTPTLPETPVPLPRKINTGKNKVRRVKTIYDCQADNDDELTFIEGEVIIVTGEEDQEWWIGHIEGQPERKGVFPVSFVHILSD

On to `O=C(Nc1cccc(-c2csc(Nc3ccc(Cl)cc3)n2)c1)c1ccccc1`, for which the half-inhibitory concentration (IC50) is more than 165 µM.
